According to PubChem BioAssay (NCI):
Where “and” joins values, the source holds several entries; their conditions need not be identical. Identical values can stand only once.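 96-well plates; 48 h exposure; 5 concentrations. Endpoints by linear interpolation between flanking doses. Not reached: highest tested concentration assigned. Abbreviation: GI50, concentration required for 50% inhibition of growth. TGI denotes the concentration required for complete inhibition of growth.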

Experiments:
Assay in all cases: NCI-60 cell line screen, 48 h
[1] = tested on: SF-295 CNS
[2] = tested on: M19-MEL melanoma
[3] = tested on: HL-60(TB) leukemia
[4] = tested on: A549 NSCLC
[5] = tested on: SF-268 CNS
[6] = tested on: DMS 273 small cell lung
[7] = tested on: HCT-15 colon
[8] = tested on: NCI/ADR-RES ovarian
[9] = tested on: PC-3 prostate
[10] = tested on: MDA-MB-231 breast

Structure (SMILES)	TGI [1]	TGI [2]	TGI [3]	TGI [4]	TGI [5]	TGI [6]	TGI [7]	GI50 [2]	TGI [8]	TGI [9]	GI50 [3]	GI50 [4]	TGI [10]	GI50 [1]	GI50 [7]	GI50 [8]	GI50 [9]	GI50 [5]	GI50 [10]
NS(=O)(=O)c1ccc(NC(=O)c2cccn3c(=O)c4ccccc4nc23)cc1	> 100 µM	> 100 µM	> 100 µM	> 100 µM	> 100 µM														
COC(=O)c1cc2c3c(ccc2[nH]1)N(C(=O)c1cc2c4c(ccc2[nH]1)N(C(=O)c1cc2c5c(ccc2[nH]1)N(C(N)=O)CC5)CC4)CC3	44 µM		> 70.5 µM	> 100 µM	> 100 µM	> 100 µM	> 100 µM												
CC[P+]1(CC)CCCC1	> 100 µM	> 100 µM		> 100 µM	> 100 µM	> 100 µM	> 100 µM												
Cc1cc(NC(=O)NC(=O)c2ccccc2N(C)C)ccc1Oc1ncc(Br)cn1	21.8 µM	> 100 µM	0.388 µM and 0.981 µM	> 63.1 µM	> 68.1 µM		> 68.1 µM	2.51 µM	24.6 µM	> 63.1 µM	0.0879 µM	0.584 µM	52.5 µM						
CC1(C)OC(COCCOCCCCCO)C(COCCOCCCCCO)O1 (stereo not drawn)	> 100 µM	> 100 µM		> 100 µM	> 100 µM	> 100 µM	> 100 µM												
COc1ccc(/C=C/C(=O)C(C)(C)Br)cc1	43.9 µM		69.2 µM	63.9 µM	34.7 µM		7.69 µM		> 100 µM	36.9 µM			63.1 µM						
c1ccc(OCCSCCCCCCCCCCSCCOc2ccccc2)cc1	> 100 µM	> 100 µM	> 100 µM	> 100 µM	> 100 µM		> 100 µM												
CCOCNc1ccc(N2C(=O)/C(=C/c3ccc(N(CC)CC)cc3)N=C2c2ccccc2)cc1	> 100 µM		> 100 µM	> 100 µM	> 100 µM		> 100 µM		> 100 µM	> 100 µM	25 µM	11.4 µM	49.3 µM	9.8 µM	1.06 µM	33.9 µM	5.83 µM	7.73 µM	13 µM
COC(=O)[C@H](Cc1ccccc1)NC(=O)c1csc([C@@H](C[C@H](C(C)C)N(C)C(=O)[C@@H](NC(=O)[C@H]2CCCN2C)C2CC2)OC(C)=O)n1	> 33.3 µM		1.9 µM	> 33.3 µM	> 33.3 µM		> 33.3 µM		> 33.3 µM	> 33.3 µM	0.204 µM	0.977 µM	> 12.9 µM	0.254 µM	0.855 µM	8.59 µM	0.572 µM	1.05 µM	0.577 µM
Fc1c[c-]c(-c2ccccn2)c(F)c1.[CH3-].[Pt+2].c1ccc(P(C[PH+](c2ccccc2)c2ccccc2)c2ccccc2)cc1	1.82 µM		1.56 µM	4.7 µM	6.88 µM		2.25 µM		11.9 µM	1.53 µM	0.38 µM	0.393 µM	1.78 µM	0.708 µM	0.975 µM	2.53 µM	0.373 µM	0.86 µM	0.724 µM
CCc1cccc(CC)c1/C=C/c1cncc(C(=O)NC)c1	> 25 µM		> 23.8 µM	> 25 µM	> 25 µM		> 25 µM		> 25 µM	> 25 µM	> 13.6 µM	9.3 µM	> 25 µM	11.6 µM	9.71 µM	6.71 µM	13.9 µM	15.6 µM	13.2 µM
Nc1ncnc2c1c(-c1ccc(Oc3ccccc3)cc1)nn2C[C@@H]1SSC[C@@H]1O	5.49 µM		7.89 µM	2.57 µM	0.53 µM		5.98 µM		7.8 µM	10.1 µM	0.576 µM	0.479 µM	4.13 µM	1.47 µM	0.57 µM	1.05 µM	1.72 µM	0.0375 µM	1.14 µM
O=C(Nc1ccccc1O)c1ccc(CNC(=O)c2ccsc2Nc2ccnc(C(F)(F)F)c2)cc1	4.51 µM		9.32 µM	12.5 µM	15.1 µM		18.9 µM		8.52 µM	20.8 µM	2.86 µM	3.21 µM	13.2 µM	1.86 µM	3.31 µM	2.23 µM	1.94 µM	2.69 µM	2.85 µM
COc1cc2cc(Oc3ccc(NC(=O)c4cccc5c4OCCO5)cc3)c(C)nc2cc1OC	> 100 µM		> 100 µM	> 100 µM	> 100 µM		> 100 µM		> 100 µM	16.2 µM	5.38 µM	7.04 µM	> 100 µM	2.91 µM	7.87 µM	3.42 µM	2.49 µM	14.4 µM	6.06 µM
COc1ccc(-c2cc(/C=C/C(=O)c3cc(OC)c(OC)c(OC)c3)[nH]n2)cc1OC	4.26 µM		14.8 µM	9.34 µM	3.9 µM		3.85 µM		37 µM	10.3 µM	1.69 µM	2.39 µM	13.5 µM	1.67 µM	1.19 µM	2.69 µM	1.99 µM	1.68 µM	2.02 µM
CC1(C)C2CCC13C(=O)C1OC3(C2)C2C(=O)c3c(O)cccc3C(=O)C12 (stereo not drawn)	0.442 µM		1.2 µM	4.57 µM	15.3 µM		0.905 µM		6.01 µM	3.09 µM	0.355 µM	1.24 µM	1.33 µM	0.156 µM	0.362 µM	2.1 µM	0.835 µM	3.06 µM	0.472 µM
CN(C)C/C=C/C(=O)Nc1ccc(C(=O)N2CCC[C@@H](Nc3ncc(Cl)c(-c4c[nH]c5ccccc45)n3)C2)cc1	4.01 µM		0.173 µM	11 µM	1.78 µM		23.2 µM		> 100 µM	3.48 µM	0.0353 µM	0.581 µM	6.71 µM	0.685 µM	8.65 µM	32.8 µM	0.308 µM	0.125 µM	0.138 µM

Structure (SMILES)	TGI [1]	TGI [2]	TGI [3]	TGI [4]	TGI [5]	TGI [6]	TGI [7]	GI50 [2]	TGI [8]	TGI [9]	GI50 [3]	GI50 [4]	TGI [10]	GI50 [1]	GI50 [7]	GI50 [8]	GI50 [9]	GI50 [5]	GI50 [10]
COc1ccccc1/C=C\C(=O)c1ccccc1	14 µM		45.6 µM	41.9 µM	27 µM		19.3 µM		24.3 µM	23 µM	5.06 µM	19.5 µM	30 µM	3.27 µM	4.8 µM	4.38 µM	5.85 µM	13.1 µM	12.5 µM
O=C(Cc1ccc(/C=C/C(=O)c2ncc[nH]2)cc1)Nc1ccc(C(F)(F)F)cc1	9.3 µM		20 µM	27.1 µM	9.53 µM		4.79 µM		> 33.3 µM	12.4 µM	2.03 µM	6.37 µM	8.55 µM	4.08 µM	1.04 µM	8.96 µM	2.81 µM	3.05 µM	2.79 µM
CC(=O)[CH-]C(=O)c1ccccc1.CC(=O)[CH-]C(=O)c1ccccc1.[CH2-]CCC.[CH2-]CCC.[Sn+4]	2.87 µM	1.96 µM	1.09 µM	4.13 µM	3.39 µM		2.87 µM	0.632 µM			0.322 µM	1.93 µM		1.51 µM	1.29 µM			1.19 µM	
COc1ccc(C2NCCc3c2[nH]c2ccccc32)cc1 (stereo not drawn)	> 100 µM	> 100 µM	> 100 µM	> 100 µM	> 100 µM		> 100 µM												
C[C@@H]1C/C=C\C(=O)O[C@H](/C=C/C#C/C=C/C(C)(C)[C@@H](O)c2cccc(O)c2Br)[C@@H](C)/C=C/[C@H](C)C[C@H](OC(N)=O)C1	0.0485 µM		2.26 µM	19.5 µM	18.2 µM		11.9 µM		16.4 µM	17.4 µM	0.0382 µM	0.0332 µM	2.12 µM	0.0212 µM	0.034 µM	0.0567 µM	0.045 µM	0.0402 µM	0.0139 µM
CN(C)CCCN1c2ccccc2Sc2ccc(Cl)cc21	17.3 µM and 22.9 µM		20.7 µM and 28.6 µM	11.3 µM and 14.1 µM	21.4 µM and 18.5 µM		14.3 µM and 16.6 µM		25.1 µM and 22.4 µM	26.3 µM and 17.3 µM	4.98 µM and 11.6 µM	3.31 µM and 3.37 µM	5.35 µM and 6.87 µM	4.13 µM and 8.91 µM	3.69 µM and 4.7 µM	11.9 µM and 9.23 µM	11.9 µM and 4.52 µM	8.89 µM and 5.25 µM	1.99 µM and 2.1 µM
NC(N)=N/N=C/c1c(-c2ccc(Cl)c([N+](=O)[O-])c2)nc2n1CCS2	20.8 µM		6.27 µM	77.9 µM	40 µM		67.3 µM		32.7 µM	15.1 µM	2.34 µM	16.1 µM	8.86 µM	7 µM	23.1 µM	15.8 µM	2.93 µM	16.1 µM	2.88 µM
c1ccc(CC(NCCNC(Cc2ccccc2)c2ccccc2)c2ccccc2)cc1 (stereo not drawn)	1.56 µM		0.89 µM	4.69 µM	7.12 µM		1.64 µM		2.2 µM	1.78 µM	0.322 µM	1.1 µM	1.24 µM	0.372 µM	0.463 µM	0.643 µM	0.409 µM	0.801 µM	0.331 µM
CC(C)(C)[Si](C)(C)OCC1OC(n2cnc3c(N)ncnc32)C(O)C1O (stereo not drawn)	> 100 µM		> 100 µM	> 100 µM	> 100 µM		> 100 µM		> 100 µM	> 100 µM			> 100 µM						
CN(C)C(=O)SC1=C(c2c(Cl)cccc2Cl)C(=O)c2ccccc21	33.7 µM		6.53 µM	> 55.7 µM	22.7 µM		6.28 µM		25.8 µM	22.8 µM	2.84 µM	24.8 µM	13.7 µM	16.6 µM	2.2 µM	9.42 µM	7.95 µM	8.9 µM	5.6 µM
COc1ccc2[nH]c(-c3ccccc3)cc2c1	> 100 µM		> 100 µM	> 100 µM	> 100 µM		> 100 µM		> 100 µM	> 100 µM	> 100 µM	> 100 µM	> 100 µM	84.7 µM	> 100 µM	> 100 µM	> 100 µM	> 100 µM	61.8 µM
Cc1ccc(-n2c3c(c4c(CN5CCOCC5)c(O)ccc42)CCc2ccccc2C3=O)cc1	> 100 µM		92.2 µM	> 100 µM	> 100 µM		> 100 µM		> 100 µM	> 100 µM	19.9 µM	82.3 µM	> 100 µM	> 100 µM	> 100 µM	39.1 µM	42.4 µM	73.7 µM	37.8 µM
CC[C@H](C)[C@H](NC(=O)[C@H]1CCCCN1C)C(=O)N(C)[C@H](C[C@@H](OC(C)=O)c1nc(C(=O)N[C@@H](Cc2ccccc2)C[C@H](C)C(=O)OC)cs1)C(C)C	0.000762 µM and 0.00468 µM		0.000743 µM and < 0.0025 µM	> 25 µM	> 25 µM					> 25 µM	0.000249 µM and < 0.0025 µM	0.000523 µM and 0.0025 µM	> 25 µM		0.000332 µM and 0.0025 µM	0.00772 µM		0.000466 µM and 0.0025 µM	0.00102 µM and 0.0025 µM
Cc1n(Cc2ccc3ccccc3c2)c(Cl)c(Cl)[n+]1Cc1ccc2ccccc2c1	8.09 µM		3.55 µM	22 µM	3.29 µM		6.52 µM		29.6 µM	4.13 µM	1.11 µM	5.07 µM	3.09 µM	2.62 µM	2.29 µM	12 µM	1.83 µM	1.67 µM	1.59 µM
COc1cc2cccc(N=Cc3c(Br)ccc(OC)c3OC(C)C)c2cc1OC	> 100 µM	> 100 µM		> 100 µM	> 100 µM														
CC(C)(C)c1cc(CCC(=O)Nc2ccc(Cl)cc2Cl)nc(N)n1	> 100 µM	> 100 µM	> 100 µM	> 100 µM	> 100 µM		> 100 µM												
Cn1cc(CO)c2ccccc21	> 100 µM		> 100 µM	> 100 µM	> 100 µM		> 100 µM		> 100 µM	> 100 µM	32.5 µM	64.3 µM	> 100 µM	34.2 µM	22.4 µM	27.1 µM	85 µM	60.6 µM	52 µM
